What was measured:
Lung NCI H-69 (Oat Cell) = experiment: Imaging and tissue distribution, tumor model; assay type: in vivo, Nude Mouse; settings: Adenocarcinoma
Adrenal H-295 = experiment: Imaging and tissue distribution, tumor model; assay type: in vivo, SCID Mouse; settings: Adenocarcinoma
[1] = system: Walker-256 carcinosarcoma; experiment: Tissue distribution of radioactivity in Walker-256 carcinosarcoma model; assay type: in vivo, rats
Method: The avidity of PLE and APC analogs to localize in tumors was evaluated in several animal models. The PC-3 model represents a human tumor cell line that was used to determine the target (tumor) to non-target ratio of NM404 and NM412 in head to head comparison in order to select a candidate for an initial human pharmacokinetic trial in prostate cancer patients. The MatLyLu (Dunning R3327 rat) model, a rat prostate tumor line, was used specifically to screen 9 specific analogs prior to entering them into control for dosimetry and tumor-bearing animals for determining tumor/background ratios. Finally, the Walker-256 carcinosarcoma model was used for quantitative tissue distribution purposes.
In order to expedite the screening process and minimize the number of tumor bearing animals utilized in multiple time point tissue distribution studies, new radioiodinated homologs were imaged by gamma camera scintigraphy in the rat Dunning […] (MAT LyLu strain) prostate cancer model. Thus, male Copenhagen rats received a subcutaneous injection of MAT LyLu cells (1×10^6 cells) in the thigh 10-14 days prior to injection of the radioiodinated PLE analogs (30-40 μCi) in 2% Tween-20 solution. Gamma camera images were obtained at multiple time points including 24 and 48 hours post injection. […] Tissue distribution of radioactivity in rats bearing Walker-256 carcinosarcoma was assessed at various time intervals following intravenous administration of the radioiodinated chain length homologs. The first group of compounds that was tested included three alkylphosphocholines: a shorter chain analog with seven carbons NM396 and two analogs with a longer chain length, 13 (NM397, C15 alkyl chain length) and 1 (NM404, C18 alkyl chain length).

Liver CT-26 = experiment: Imaging and tissue distribution, tumor model; assay type: in vivo, Mouse xenograft; settings: Colorectal adenocarcinoma
Min Mouse Intestinal = experiment: Imaging and tissue distribution, tumor model; therapeutic responses at imaging doses; assay type: in vivo
Description: (§1) During the course of mouse tumor uptake and retention studies with “imaging” doses (15-20 μCi/20 g mouse) of ^125I-labeled NM404, several apparent therapeutic responses have been observed (unpublished results). […] Some of these animals also lost all hair above larger mammary tumors at around 8 days after injection. Moreover, these mice also get intestinal tumors and usually suffer from intestinal bleeding resulting in severe anemia, which renders their feet white. […] Another compelling example of tumor regression is illustrated in FIG. 13. Two litter mates each received SCC1 and SCC6 xenografts in their left and right flanks, respectively. One mouse received a single injection of ^125I-NM404 (20 μCi). […] These coincidental findings were reconfirmed in two separate age-matched groups each involving more than 6 mice.

Melanoma = experiment: Imaging and tissue distribution, tumor model; assay type: in vivo, Mouse xenograft; settings: Adenocarcinoma
Description: (§2) Imaging and tissue distribution studies performed in mouse models aimed at determining the uptake characteristics in a wide variety of tumor models are summarized in Table 1, below.

SCC1 and 6 = experiment: Imaging and tissue distribution, tumor model; tumor regression; assay type: in vivo; settings: Squamous cell carcinoma
Description: as §1

Mammary SCC and ACC = experiment: Imaging and tissue distribution, tumor model; therapeutic responses at imaging doses; assay type: in vivo, Apc^Min/+mouse; settings: Squamous cell carcinoma and Adenocarcinoma
Description: as §1

Glioma L9 = experiment: Imaging and tissue distribution, tumor model; assay type: in vivo, Rat
Description: as §2

Retinoblastoma = experiment: Imaging and tissue distribution, tumor model; assay type: in vivo, Spontaneous Mouse; settings: Blastoma
Cervical = experiment: Imaging and tissue distribution, tumor model; assay type: in vivo, Spontaneous Mouse; settings: Adenocarcinoma
[2] = Human safety studies of unlabeled NM404; assay type: in vivo; settings: normal male humans, mass of 10 times the anticipated imaging dose
Method: Formal toxicology studies of NM404 in male rats and rabbits were performed at the Toxicology Research Center of the State University of New York at Buffalo under the direction of Dr. Paul Kostyniak. Drug vehicle and drug product were provided to Dr. Kostyniak by Dr. Raymond Counsell of the University of Michigan for testing as described in the appended synopses of Study 27 and Study 28. […] Human safety studies of unlabeled NM404 were initiated in normal male humans at a mass of 10 times the anticipated imaging dose and about 21 times the anticipated therapy dose. […] This toxicology study was performed under GLP conditions.

[3] = system: non-small cell lung cancer (NSCLC); experiment: Initial human pharmacokinetic evaluation, planar gamma-camera scintigraphy; assay type: in vivo; settings: relative to NM324
Description: FIG. 6A-C images of lung cancer patient, posterior whole body planar nuclear medicine image (A) 4 days after iv administration of ^131I-NM404 (0.8 mCi) to a patient with non small cell lung cancer (6 cm dia., arrow). Lung tumor is easily detected in corresponding axial (B) and coronal (C) computed tomography (CT) scans;
In preparation for human clinical trials, unlabeled NM404 was subjected to independent (University of Buffalo Toxicology Research Center) acute toxicity evaluation at 1200 times the anticipated imaging mass dose in rats and rabbits. […] Due to its selective tumor uptake and retention properties in a variety of rodent tumor models and subsequent excellent safety profile in rats and rabbits, NM404 was selected to undergo initial human pharmacokinetic evaluation in non-small cell lung cancer (NSCLC) patients. Patients underwent planar gamma-camera scintigraphy after receiving an injection of ^131I-NM404 (<1 mCi).

Blood plasma kinetics = experiment: Blood plasma kinetics; set-up: species or system rats; settings: rat, in vivo
animal tumor models = experiment: Imaging and biodistribution across animal tumor models (general statements)
Description: See, for example, U.S. patent application Ser. Nos. 10/906,687, 11/177,740, 11/316,620 and 11/382,645. Due to deficiencies in metabolic phospholipase enzymes in the membranes of malignant tumor cells, the prevailing hypothesis for this specificity is that phospholipid ether analogs become trapped exclusively in tumor cell membranes because of their inability to become metabolized and eliminated by the cancerous cell. Thus, the differential clearance rates of phospholipid ethers from normal cells versus neoplastic tumor cells are responsible for this specificity.
The reason for the retention of PLE and analogs in cancer cells remains unknown. Without being held to any particular theory, however, the prevailing hypothesis, is that radioiodinated PLE and APC analogs become trapped in tumor cell membranes because of their inability to be metabolized and eliminated. On the other hand, such lipid molecules are metabolized and cleared by normal tissues, including the liver.
These PLE analogs are specifically designed to incorporate aromatic radioiodine in order to render the molecule stable towards in vivo deiodination.

SMILES: C[N+](C)(C)CCOP(=O)([O-])OCCCCCCCCCCCCCCCCCCc1ccc(I)cc1 [NM404, 18-(p-iodophenyl)-octadecyl phosphocholine]
- Uptake (Lung NCI H-69 (Oat Cell)): Yes
- Uptake (Adrenal H-295): Yes
- peak radioactivity in the tumor ([1]; 48 hours after administration): 1.14±0.01 % of ID/g
- blood levels ([1]; 120 hours): 0.6±0.1 % of ID/g
- Uptake ([1]; Carcinosarcoma): Yes
- time of peak radioactivity in the tumor ([1]; after intravenous administration): 48 h
- total radioactivity levels in the thyroid ([1]; considering the small mass of the gland): relatively low
- radioactivity in liver, kidney and duodenum compared with C15 analog 13 ([1]; rat, in vivo): significantly lower
- Uptake (Liver CT-26): Yes
- Uptake (Min Mouse Intestinal; Adenocarcinoma): Yes
- survival vs untreated litter mates (Min Mouse Intestinal; after 21 days, both intestinal models): easily outlived their untreated litter mates
- feet color (anemia from intestinal bleeding) (Min Mouse Intestinal; around 5 days after a single injection, ^125I-labeled, 15-20 μCi/20 g mouse): reverted to a pink color
- intestinal tumors remaining at dissection (Min Mouse Intestinal; of the expected 20 or so, ^125I-labeled, 15-20 μCi/20 g mouse): only a very few, if any
- Uptake (Melanoma): Yes
- Uptake (SCC1 and 6): Yes
- Uptake (Mammary SCC and ACC): Yes
- Uptake (Glioma L9): Yes
- Uptake (Retinoblastoma): Yes
- Uptake (Cervical): Yes
- toxicity [2]: no toxicity attributable to the drug substance
- liver and abdominal radioactivity levels [3]: much lower
- distribution phase half life (Blood plasma kinetics): 4.86 h
- elimination half life time in plasma (Blood plasma kinetics): roughly 209 hours
- tumor concentrations over time (animal tumor models; following administration): almost stable for many weeks
- elimination from normal tissue (animal tumor models; in vivo): eliminated from normal tissue within a few days
- tumor retention (animal tumor models; over 27 animal tumor models, every model and tumor type studied): tumor-selective retention
- tumor selectivity (animal tumor models; radioiodinated, 37 of 37 models investigated): remarkable tumor selectivity
- uptake into the tumor tissue (animal tumor models; up to): 10-25 % of the injected dose
